Test results published in patent US5324725A, “7-fused 2-(piperazinoalkyl) indole derivatives, intermediates and compositions thereof” (Kali-Chemie Pharma GmbH, priority 1991, dated 1994).
Read-outs that look alike come from different tables or passages of the source.

Tests used:
cyclooxygenase = molecular target: T1, cyclooxygenase (Mus musculus, UniProt P22437); experiment: Cyclooxygenase inhibition: release of 6-keto-PGF1 α from zymosan-stimulated mouse peritoneal macrophage cells; type: cell-based; conditions: 10^-5 mol/l, read-out: In vitro % inhibition effect on the release of 6-keto-PGF1 α
T1 construct: A cell suspension containing peritoneal cells of male mice 8-10 weeks old was obtained; endogenous in cells; host or cells: mouse peritoneal macrophages (male mice 8-10 weeks old), zymosan-stimulated
T1 sequence (P22437 27-602): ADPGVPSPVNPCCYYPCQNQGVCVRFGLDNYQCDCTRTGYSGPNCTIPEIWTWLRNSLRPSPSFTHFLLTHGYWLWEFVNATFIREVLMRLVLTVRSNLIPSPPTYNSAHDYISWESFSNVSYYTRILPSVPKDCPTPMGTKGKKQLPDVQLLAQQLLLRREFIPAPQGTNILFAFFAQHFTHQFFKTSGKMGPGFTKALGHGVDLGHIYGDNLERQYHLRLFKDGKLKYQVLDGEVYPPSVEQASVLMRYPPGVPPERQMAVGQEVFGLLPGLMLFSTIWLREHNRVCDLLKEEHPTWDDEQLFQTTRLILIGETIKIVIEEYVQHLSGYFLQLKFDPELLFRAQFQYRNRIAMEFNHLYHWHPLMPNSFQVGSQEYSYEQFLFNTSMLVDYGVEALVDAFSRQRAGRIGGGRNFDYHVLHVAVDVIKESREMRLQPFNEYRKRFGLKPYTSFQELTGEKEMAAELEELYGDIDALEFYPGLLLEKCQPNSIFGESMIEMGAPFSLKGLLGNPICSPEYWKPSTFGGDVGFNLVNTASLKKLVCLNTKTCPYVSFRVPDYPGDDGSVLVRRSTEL
Source text: 5. In vitro determination of cyclooxygenase inhibition and 5-lipoxygenase inhibition.
After activation of the cell, arachidonic acid contained in cell membranes is metabolized in two ways. Leukotrienes, inter alia leukotriene C4, are formed under the action of the enzyme 5-lipoxygenase (5-LO), and prostanoids are formed under the action of the enzyme cyclooxygenase (CO). In in vitro systems, the metabolites are secreted from the cell.
To investigate the cyclooxygenase-inhibiting and the 5-lipoxygenase-inhibiting properties, the inhibitory effect of the test substances on the biosynthesis of the arachidonic acid derivatives leukotriene C4 (LTC4) and 6-ketoprostaglandin F1 α (6-keto-PGF1 α) is determined in vitro on mouse peritoneal macrophage cells. This was accomplished by determining the LTC4 and 6-keto-PGF1 α contents in a culture medium of mouse peritoneal macrophage cells by zymosan stimulation as described by Scott et al. (J. Exp. Med. 152 (1980), 324-335) and by Fradin et al. (Prostaglandins, 33 (1987), 579-589).
A cell suspension containing peritoneal cells of male mice 8-10 weeks old was obtained in a known manner. A commercially available cell culture solution (RPMI 1640 from Messrs. Gibco) was used to which heparin (I0 international units/ml) and antibiotics were added according to the recipe of Bonney et al. (Biochem. J. 176 (1978) 422-433). The cell suspension was adjusted to a cell concentration of 10^6 cells per ml and distributed uniformly on titer plates containing […] (wells). These were kept for two hours in a humidified incubator filled with air enriched with 7% CO2. Cells not adhering to the titer cell walls were then removed by washing. The remaining macrophage cells adhering to the walls were incubated for about 12 hours in a suspension medium to which 0.1% bovine serum albumin (BSA) were added. The suspension medium was then replaced by a Hanks balanced salt solution (HBSS) containing 10 mM Hepes (hydroxyethyl-piperazinoethanesulfonic acid), to which a 0.1% strength solution of the test substances in aqueous, 1% strength dimethylformamide or only the solvent had been added. After 15 minutes the arachidonic acid metabolism was stimulated by adding 10 particles of zymosan (=glycoproteinmixture, isolated from cell walls of beer yeast, Saccharomyces cerevisiae, manufactured by Sigma Chemical Co., Munich) per titer cell. After 2 hours, samples of each of the supernatant liquids were investigated for their 6-keto-PGF1 α and LTC4 contents by means of an enzyme immunoassay (EIA) carried out by the method of Pradelles et al. (Analytical Chem. 57 (1985), 1170-1173). The determination of LTC4 and the determination of 6-keto-PGF1 α were each carried out in comparison with a comparative scale on suitable dilutions of the samples (1:50 to 1:250 for the LTC4 determination and 1:250 to 1:1250 for the 6-keto-PGF1 α determination). To determine the inhibitory effect of a 10^-5 molar concentration of the compounds, the amount of reference eicosanoids was determined and the inhibitory effect was calculated from this in % inhibition compared to the measurements of the zymosan controls.

histamine (H1) receptor = molecular target: T2, histamine (H1) receptor (Cavia porcellus, UniProt P31389); experiment: Antihistamine (H1) effect: inhibition of histamine-induced contractions of isolated guinea-pig ileum in vitro; type: cell-based, guinea-pig (Dunkin Hartley); conditions: histamine 5 × 10^-6 mol/l, test substance 10^-6 mol/l
T2 construct: isolated smooth muscle of the guinea-pig ileum; from tissue; host or cells: isolated ileum segments of Dunkin Hartley guinea-pigs
T2 sequence (P31389 whole entry): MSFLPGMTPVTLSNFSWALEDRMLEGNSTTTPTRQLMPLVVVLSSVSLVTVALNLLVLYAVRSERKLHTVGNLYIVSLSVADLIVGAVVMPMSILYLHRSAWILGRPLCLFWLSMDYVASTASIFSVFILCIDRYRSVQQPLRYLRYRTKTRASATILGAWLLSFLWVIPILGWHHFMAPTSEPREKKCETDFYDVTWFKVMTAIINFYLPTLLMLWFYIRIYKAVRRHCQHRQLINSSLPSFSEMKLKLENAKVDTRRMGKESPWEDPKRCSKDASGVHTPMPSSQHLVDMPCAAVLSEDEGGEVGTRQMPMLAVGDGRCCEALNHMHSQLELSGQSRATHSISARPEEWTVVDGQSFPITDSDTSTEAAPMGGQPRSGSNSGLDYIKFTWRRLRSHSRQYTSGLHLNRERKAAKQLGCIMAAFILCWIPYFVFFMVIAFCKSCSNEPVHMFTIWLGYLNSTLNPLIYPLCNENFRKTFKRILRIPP
In short: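 Dunkin Hartley guinea-pig ileum segments (300-500 g animals) in Krebs-Henseleit, pH 7.4, 5% CO2/95% O2, 1 g tension, isotonic recording. Compound at 10^-6 mol/l for 30 s before histamine 5×10^-6 mol/l; contraction measured over 30 s, repeated 10 min after washout, expressed as % inhibition.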

[1] = after 30 sec., read-out: in vitro (H1) receptor antagonism % inhibitory effect on histamine-induced contractions of the Ileum, after 30 sec.
[2] = after 10 min. (after washing), read-out: in vitro (H1) receptor antagonism % inhibitory effect on histamine-induced contractions of the Ileum, after 10 min.

SMILES	inhibition at 10 µM (cyclooxygenase) [%]	inhibition at 1 µM (histamine (H1) receptor; [1]) [%]	inhibition at 1 µM (histamine (H1) receptor; [2]) [%]	in vitro (H1) receptor antagonism % inhibitory effect on histamine-induced contractions of the Ileum, after 30 sec. (histamine (H1) receptor; after 30 sec.) [%]	in vitro (H1) receptor antagonism % inhibitory effect on histamine-induced contractions of the Ileum, after 10 min. (histamine (H1) receptor; after 10 min. (after washing)) [%]
Cc1ccnc(N2CCN(CCc3c(C)n4c5c(ccc(C(=O)C(C)C)c35)SCC4)CC2)c1 [Example 91]	54	16	83	–	–
Cc1ccnc(N2CCN(CCc3c(C)n4c5c(ccc(C(O)C(C)C)c35)SCC4)CC2)c1 (stereo not drawn) [Example 90]	56	19	88	–	–
CCCCC1CCc2cc(O)cc3c(CCN4CCN(c5cc(C)ccn5)CC4)c(C)n1c23 (stereo not drawn) [Example 76]	67	3	67	–	–
Cc1ccnc(N2CCN(CCc3c(C)n4c5c(cccc35)CCC4c3ccccc3)CC2)c1 (stereo not drawn) [Example 3, 5,6-dihydro-2-methyl-4-phenyl-1-{2-[4-(4-methylpyridine-2-yl)piperazin-1-yl]-ethyl}-4H-pyrrolo[3,2,1-ij]quinoline]	20	15	57	–	–
Cc1ccc(N2CCN(CCc3c(C)n4c5c(cccc35)CCC4)CC2)nc1 [Example 42]	76	52	54	–	–
Cc1c(CCN2CCN(c3ccccn3)CC2)c2cccc3c2n1CCC3 [Example 37]	32	24	61	–	–
Cc1ccnc(N2CCN(CCc3c(CO)n4c5c(cccc35)CCC4)CC2)c1 [Example 16, 5,6-dihydro-2-hydroxymethyl-1-{2-[4-(4-methylpyridin-2-yl)piperazin-1-yl]ethyl}-4H-pyrrolo[3,2,1-ij]quinoline]	18	42	55	–	–
COc1ccc(C2CCc3cc(OC)cc4c(CCN5CCN(c6cc(C)ccn6)CC5)c(C)n2c34)cc1 (stereo not drawn) [Example 65]	52	21	48	–	–
CC(C)=Cc1cc2c3c(c1)c(CCN1CCN(c4cc(C)ccn4)CC1)c(C)n3CCC2 [Example 26, 5,6-Dihydro-2-methyl-8-(2-methylprop-1-enyl)-1-{2-[4-(4-methylpyridin-2-yl)piperazin-1-yl]ethyl}-4H-pyrrolo[3,2,1-ij]quinoline]	68	15	42	–	–
Cc1ccnc(N2CCN(CCc3c(C)n4c5c(cc(Br)cc35)CCC4)CC2)c1 [Example 9, 8-Bromo-2-methyl-1-{2-[4-(4-methylpyridin-2-yl)piperazin-1-yl]ethyl}-5,6-dihydro-4H-pyrrolo[3,2,1-ij]quinoline]	19	10	78	–	–
Cc1ccnc(N2CCN(CCc3c(C)n4c5c(cc(C(O)C(C)C)cc35)CCC4)CC2)c1 (stereo not drawn) [Example 19, 5,6-Dihydro-8-(1-hydroxy-2-methylpropyl)-2-methyl-1-{2-[4-(4-methylpyridin-2-yl)piperazin-1-yl]ethyl}-4H-pyrrolo-[3,2,1-ij]quinoline]	5	26	83	–	–
Cc1ccnc(N2CCN(CCc3c(C)n4c5c(cc(CC(C)C)cc35)CCC4)CC2)c1 [Example 21, 5,6-Dihydro-2-methyl-8-(2-methylpropyl)-1-{2-[4-(4-methylpyridin-2-yl)piperazin-1-yl]ethyl}-4H-pyrrolo[3,2,1-ij]quinoline]	64	9	56	–	–
CCCCC1CCc2cc(C(=O)C(C)C)cc3c(CCN4CCN(c5cc(C)ccn5)CC4)c(C)n1c23 (stereo not drawn) [Example 23, 4-n-Butyl-5,6-dihydro-8-(2-methyl-1-oxopropyl)-2-methyl-1-{2-[4-(4-methylpyridin-2-yl)piperazin-1-yl]ethyl}-4H-pyrrolo[3,2,1-ij]quinoline]	43	7	38	–	–
Cc1ccnc(N2CCN(CCc3c(C)n4c5c(cc(N)cc35)CCC4)CC2)c1 [Example 20, 8-Amino-5,6-dihydro-2-methyl-1-{2-[4-(4-methylpyridin-2-yl)piperazin-1-yl]ethyl}-4H-pyrrolo[3,2,1-ij]quinoline]	42	27	77	–	–
CCCCC1CCc2cc(OC)cc3c(CCN4CCN(c5cc(C)ccn5)CC4)c(C)n1c23 (stereo not drawn) [Example 63]	38	17	67	–	–
Cc1ccnc(N2CCN(CCc3c(C)n4c5c(cccc35)CC4C)CC2)c1 (stereo not drawn) [Example 33]	21	45	96	–	–
CNc1cc2c3c(c1)c(CCN1CCN(c4cc(C)ccn4)CC1)c(C)n3CCC2 [Example 80]	12	–	–	15	63
Cc1c(CCN2CCN(c3ccc(Br)cn3)CC2)c2cccc3c2n1CCC3 [Example 43]	57	11	23	–	–
CC(=O)c1cc2c3c(c1)c(CCN1CCN(c4cc(C)ccn4)CC1)c(C)n3CCC2 [Example 67]	36	59	93	–	–
Cc1ccnc(N2CCN(CCc3c(C)n4c5c(cccc35)CCC4)CC2)c1 [Example 1, 5,6-Dihydro-2-methyl-1-{2-[4-(4-methylpyridin-2-yl)piperazin-1-yl]ethyl}-4H-pyrrolo[3,2,1-ij]quinoline]	23	42	88	–	–
Cc1ccnc(N2CCN(CCc3c(C)n4c5c(ccc(Cl)c35)OCC4)CC2)c1 [Example 35]	51	25	78	–	–
Cc1ccnc(N2CCN(CCc3c(C)n4c5c(cc(C(=O)C6CCCCC6)cc35)CCC4)CC2)c1 [Example 83]	29	12	52	–	–
C=CCCC1CCc2cccc3c(CCN4CCN(c5cc(C)ccn5)CC4)c(C)n1c23 (stereo not drawn) [Example 62]	64	13	72	–	–
Cc1ccnc(N2CCN(CCc3c(C)n4c5c(cc(NC(=O)c6ccccc6)cc35)CCC4)CC2)c1 [Example 25, 8-Benzoylamino-5,6-dihydro-2-methyl-1-{2-[4-(4-methylpyridin-2-yl)piperazin-1-yl]-ethyl}-4H-pyrrolo[3,2,1-ij]quinoline]	24	10	77	–	–
